Measurements: publication PMC5975834 (2015)

How the values were obtained:
[1] = test system: ATP-based allosteric TSDzyme (DNA, G4) AGGCAGTTGAGACGAACATTCCTAAGTCTGAAATTTATCACCCGCCATAGTAGACGTATCACC/CTTGCTACACGATTCAGACTTAGGAATGTTCGACATGCGAGGGTCCAATACCGACGATTACAG/GGTGATAAAACGTGTAGCAAGCTGTAATCGACTCTAACCTGGGGGAGTATTGCGGAGGAAGGTGGCTCACTACTATGGCG/GGGTAGGGCGGGTTGGGTTAGAGACGGTATTGGACCCTCGCATGACTCAACTGCCTGGTGATACGAGAGCCTGGGTAGGGCGGGTTGGG; conditions: K+ 20 mM KAc, 70 mM KCl (assumed KAc buffer)
[2] = test system: 5 bp Bi-quadruplex (DNA, G4) GGGTAGGGCGGGTTGGGTTTTTGGGTAGGGCGGGTTGGG; conditions: K+ 20 mM KAc, 70 mM KCl (assumed KAc buffer)
[3] = test system: Hairpin-based allosteric TSDzyme (DNA, G4) AGGCAGTTGAGACGAACATTCCTAAGTCTGAAATTTATCACCCGCCATAGTAGACGTATCACC/CTTGCTACACGATTCAGACTTAGGAATGTTCGACATGCGAGGGTCCAATACCGACGATTACAG/GGTGATAAAACGTGTAGCAAGCTGTAATCGACTCTAGCGGAAGAACCCACAACCGCGGCTCACTACTATGGCG/GGGTAGGGCGGGTTGGGTTAGAGACGGTATTGGACCCTCGCATGACTCAACTGCCTGGTGATACGAGAGCCTGGGTAGGGCGGGTTGGG; assay: free energy of hemin/G-quadruplex complex formation
[4] = test system: 15 bp Bi-quadruplex (DNA, G4) GGGTAGGGCGGGTTGGGTTTTTTTTTTTTTTTGGGTAGGGCGGGTTGGG; conditions: K+ 20 mM KAc, 70 mM KCl (assumed KAc buffer)
[5] = test system: G-quadruplex (free hemin-G) (DNA, G4) GGGTAGGGCGGGTTGGG; assay: hemin absorbance at 404 nm vs DNA concentration; conditions: K+ 20 mM KAc, 70 mM KCl (assumed KAc buffer)
[6] = test system: TSDzyme (out) (DNA, G4) GGGTAGGGCGGGTTGGGCAGTTGAGACGAACATTCCTAAGTCTGAAATTTATCACCCGCCATAGTAGACGTATCACCAGG/CTTGCTACACGATTCAGACTTAGGAATGTTCGACATGCGAGGGTCCAATACCGACGATTACAG/GGTGATAAAACGTGTAGCAAGCTGTAATCGACGGGAAGAGCATGCCCATCCACTACTATGGCG/CCTCGCATGACTCAACTGCCTGGTGATACGAGGATGGGCATGCTCTTCCCGACGGTATTGGAC; assay: free energy of hemin/G-quadruplex complex formation
[7] = test system: TSDzyme (out) (DNA, G4) GGGTAGGGCGGGTTGGGCAGTTGAGACGAACATTCCTAAGTCTGAAATTTATCACCCGCCATAGTAGACGTATCACCAGG/CTTGCTACACGATTCAGACTTAGGAATGTTCGACATGCGAGGGTCCAATACCGACGATTACAG/GGTGATAAAACGTGTAGCAAGCTGTAATCGACGGGAAGAGCATGCCCATCCACTACTATGGCG/CCTCGCATGACTCAACTGCCTGGTGATACGAGGATGGGCATGCTCTTCCCGACGGTATTGGAC; assay: hemin absorbance at 404 nm vs DNA concentration; conditions: K+ 20 mM KAc, 70 mM KCl (assumed KAc buffer)
[8] = test system: G-quadruplex (free hemin-G) (DNA, G4) GGGTAGGGCGGGTTGGG; assay: free energy of hemin/G-quadruplex complex formation
[9] = test system: Hairpin-based allosteric TSDzyme (DNA, G4) AGGCAGTTGAGACGAACATTCCTAAGTCTGAAATTTATCACCCGCCATAGTAGACGTATCACC/CTTGCTACACGATTCAGACTTAGGAATGTTCGACATGCGAGGGTCCAATACCGACGATTACAG/GGTGATAAAACGTGTAGCAAGCTGTAATCGACTCTAGCGGAAGAACCCACAACCGCGGCTCACTACTATGGCG/GGGTAGGGCGGGTTGGGTTAGAGACGGTATTGGACCCTCGCATGACTCAACTGCCTGGTGATACGAGAGCCTGGGTAGGGCGGGTTGGG; conditions: K+ 20 mM KAc, 70 mM KCl (assumed KAc buffer)
[10] = test system: TSDzyme (in) (DNA, G4) GGGTAGGGCGGGTTGGGCCAGGCAGTTGAGACGAACATTCCTAAGTCTGAAATTTATCACCCGCCATAGTAGACGTATCA/CTTGCTACACGATTCAGACTTAGGAATGTTCGACATGCGAGGGTCCAATACCGACGATTACAG/GGTGATAAAACGTGTAGCAAGCTGTAATCGACGGGAAGAGCATGCCCATCCACTACTATGGCG/CCTCGCATGACTCAACTGCCTGGTGATACGAGGATGGGCATGCTCTTCCCGACGGTATTGGAC; assay: free energy of hemin/G-quadruplex complex formation
[11] = test system: TSDzyme (in) (DNA, G4) GGGTAGGGCGGGTTGGGCCAGGCAGTTGAGACGAACATTCCTAAGTCTGAAATTTATCACCCGCCATAGTAGACGTATCA/CTTGCTACACGATTCAGACTTAGGAATGTTCGACATGCGAGGGTCCAATACCGACGATTACAG/GGTGATAAAACGTGTAGCAAGCTGTAATCGACGGGAAGAGCATGCCCATCCACTACTATGGCG/CCTCGCATGACTCAACTGCCTGGTGATACGAGGATGGGCATGCTCTTCCCGACGGTATTGGAC; assay: hemin absorbance at 404 nm vs DNA concentration; conditions: K+ 20 mM KAc, 70 mM KCl (assumed KAc buffer)
[12] = test system: 10 bp Bi-quadruplex (DNA, G4) GGGTAGGGCGGGTTGGGTTTTTTTTTTGGGTAGGGCGGGTTGGG; conditions: K+ 20 mM KAc, 70 mM KCl (assumed KAc buffer)
[13] = test system: ATP-based allosteric TSDzyme (DNA, G4) AGGCAGTTGAGACGAACATTCCTAAGTCTGAAATTTATCACCCGCCATAGTAGACGTATCACC/CTTGCTACACGATTCAGACTTAGGAATGTTCGACATGCGAGGGTCCAATACCGACGATTACAG/GGTGATAAAACGTGTAGCAAGCTGTAATCGACTCTAACCTGGGGGAGTATTGCGGAGGAAGGTGGCTCACTACTATGGCG/GGGTAGGGCGGGTTGGGTTAGAGACGGTATTGGACCCTCGCATGACTCAACTGCCTGGTGATACGAGAGCCTGGGTAGGGCGGGTTGGG; assay: free energy of hemin/G-quadruplex complex formation
[14] = test system: ATP-based allosteric TSDzyme (DNA, G4) AGGCAGTTGAGACGAACATTCCTAAGTCTGAAATTTATCACCCGCCATAGTAGACGTATCACC/CTTGCTACACGATTCAGACTTAGGAATGTTCGACATGCGAGGGTCCAATACCGACGATTACAG/GGTGATAAAACGTGTAGCAAGCTGTAATCGACTCTAACCTGGGGGAGTATTGCGGAGGAAGGTGGCTCACTACTATGGCG/GGGTAGGGCGGGTTGGGTTAGAGACGGTATTGGACCCTCGCATGACTCAACTGCCTGGTGATACGAGAGCCTGGGTAGGGCGGGTTGGG; assay: allosteric change of peroxidase activity; conditions: 0.5 mM ATP

Row | KD [1] [nM] | KD [2] [nM] | -ΔGtetra [3] [kcal/mol] | KD [4] [nM] | KD [5] [nM] | -ΔGtetra [6] [kcal/mol] | KD [7] [nM] | -ΔGfree [8] [kcal/mol] | KD [9] [nM] | -ΔGtetra [10] [kcal/mol] | KD [11] [nM] | KD [12] [nM] | -ΔGtetra [13] [kcal/mol] | binding [14] | SMILES
1 | 450 ± 170 | 1200 ± 200 | 8.58 ± 0.17 | 1300 ± 400 | 2200 ± 500 | 8.34 ± 0.17 | 750 ± 230 | 7.72 ± 0.14 | 500 ± 150 | 8.39 ± 0.12 | 700 ± 140 | 1300 ± 200 | 8.65 ± 0.22 |  | C=CC1=C(C)C2=Cc3c(C=C)c(C)c4[n]3[Fe]([Cl])[n]3c(c(C)c(CCC(=O)O)c3=CC3=NC(=C4)C(C)=C3CCC(=O)O)=CC1=N2
2 |  |  |  |  |  |  |  |  |  |  |  |  |  | yes | Nc1ncnc2c1ncn2[C@@H]1O[C@H](COP(=O)(O)OP(=O)(O)OP(=O)(O)O)[C@@H](O)[C@H]1O
